The test has as its system Mycobacterium tuberculosis. Put plainly: Antitubercular activity against Mycobacterium tuberculosis H37Rv ATCC 27294 assessed as growth inhibition after 28 days by agar dilution method. Type of test: functional. The settings on record: for MIC: Mycobacterium tuberculosis, H37Rv ATCC 27294, 672 h. (In general: In agar dilution the substance is mixed into plates at graded concentrations.)

In brackets after ≈: the same amount, converted by molar mass. A value given as a limit tells only on which side of the number the result lay.

As for `NNC(=O)c1ccncc1` [ISONIAZID], the “-logMIC” value came to 6.447 and the MIC – broadly, the lowest concentration found to suppress growth – was 0.357 µM (≈ 0.049 µg/mL). For the molecule `COc1ccc(C2CC(c3ccc([N+](=O)[O-])cc3)=NN2)cc1` (stereo not drawn), the MIC is greater than 339 µM. As to `O=[N+]([O-])c1ccc(C2=NNC(c3ccc(Br)cc3)C2)cc1` (stereo not drawn), the “-logMIC” value stood at 4.139 and the MIC worked out at 72.7 µM (≈ 25.2 µg/mL).

Regarding `O=[N+]([O-])c1ccc(C2=NOC(c3ccc(F)cc3)C2)cc1` (stereo not drawn), the “-logMIC” value was determined as 4.357 and the MIC stood at 44 µM (≈ 12.6 µg/mL). Take `CN(C)c1ccc(/C=C/C(=O)c2ccc([N+](=O)[O-])cc2)cc1`: the “-logMIC” value came to 4.074 and the minimum inhibitory concentration (MIC) amounted to 84.5 µM (≈ 25 µg/mL). In the same order, the values of `COc1cccc(C2CC(c3ccc([N+](=O)[O-])cc3)=NC(=S)N2)c1` (stereo not drawn) are 3.531 and 293 µM (≈ 100 µg/mL).

`O=[N+]([O-])c1ccc(C2=NNC(c3ccc(Cl)cc3)C2)cc1` (stereo not drawn): the “-logMIC” value was found to be 4.079 and the MIC was found to be 83.6 µM (≈ 25.2 µg/mL).

Turning to `CN(C)c1ccc(C2CC(c3ccc([N+](=O)[O-])cc3)=NC(=O)N2)cc1` (stereo not drawn), the “-logMIC” value was 3.527 and the MIC came to 296 µM (≈ 100 µg/mL). On the same counts, the results for `O=C(/C=C/c1ccc(Cl)cc1)c1ccc([N+](=O)[O-])cc1` are 4.362 and 43.5 µM (≈ 12.5 µg/mL). As for `CN(C)c1ccc(C2CC(c3ccc([N+](=O)[O-])cc3)=NC(=S)N2)cc1` (stereo not drawn), the “-logMIC” value is given as 3.848 and the minimum inhibitory concentration (MIC) was found to be 141 µM (≈ 50.1 µg/mL).

In the case of `O=[N+]([O-])c1ccc(C2=NNC(c3cccc(Cl)c3)C2)cc1` (stereo not drawn), the “-logMIC” value amounted to 4.079 and the MIC stood at 83.6 µM (≈ 25.2 µg/mL). With `CO[C@H]1/C=C/O[C@@]2(C)Oc3c(C)c(O)c4c(O)c(c(/C=N/N5CCN(C)CC5)c(O)c4c3C2=O)NC(=O)/C(C)=C\C=C\[C@H](C)[C@H](O)[C@@H](C)[C@@H](O)[C@@H](C)[C@H](OC(C)=O)[C@@H]1C` [RIFAMPIN], the “-logMIC” value was 6.924 and the minimal inhibitory concentration (MIC) stood at 0.119 µM (≈ 0.0979 µg/mL). For the molecule `COc1cccc(C2CC(c3ccc([N+](=O)[O-])cc3)=NO2)c1` (stereo not drawn), the MIC is greater than 169 µM. For `O=[N+]([O-])c1ccc(C2=NOC(c3cccc(Cl)c3)C2)cc1` (stereo not drawn), the MIC was greater than 83.3 µM.

With `O=[N+]([O-])c1ccc(C2=NC(=S)NC(c3ccc(Cl)cc3Cl)C2)cc1` (stereo not drawn), the “-logMIC” value amounted to 4.481 and the minimum inhibitory concentration (MIC) turned out to be 32.9 µM (≈ 12.5 µg/mL). In the same order, the values of `COc1cc(C2CC(c3ccc([N+](=O)[O-])cc3)=NC(=S)N2)cc(OC)c1OC` (stereo not drawn) are 3.601 and 249 µM (≈ 100 µg/mL). Regarding `O=[N+]([O-])c1ccc(C2=NC(=S)NC(c3ccc(F)cc3)C2)cc1` (stereo not drawn), the “-logMIC” value is given as 4.418 and the MIC stood at 38 µM (≈ 12.5 µg/mL).

In the case of `COc1ccc(C2CC(c3ccc([N+](=O)[O-])cc3)=NC(=O)N2)cc1OC` (stereo not drawn), the “-logMIC” value was found to be 3.548 and the MIC was determined as 282 µM (≈ 100 µg/mL). In the same order, the values of `O=[N+]([O-])c1ccc(C2=NC(=S)NC(c3cccc(Cl)c3)C2)cc1` (stereo not drawn) are 4.138 and 72.5 µM (≈ 25.1 µg/mL). On the same counts, the results for `CC[C@@H](CO)NCCN[C@@H](CC)CO` [ETHAMBUTOL] are 5.117 and 7.63 µM (≈ 1.56 µg/mL).

As to `COc1cccc(/C=C/C(=O)c2ccc([N+](=O)[O-])cc2)c1`, the “-logMIC” value came to 4.054 and the minimum inhibitory concentration (MIC) is 88.3 µM (≈ 25 µg/mL). Take `CN(C)c1ccc(C2CC(c3ccc([N+](=O)[O-])cc3)=NN2)cc1` (stereo not drawn): the “-logMIC” value was found to be 3.489 and the minimum inhibitory concentration (MIC) came to 323 µM (≈ 100 µg/mL).

In the case of `COc1ccc(C2CC(c3ccc([N+](=O)[O-])cc3)=NC(=S)N2)cc1` (stereo not drawn), the “-logMIC” value is recorded as 3.531 and the MIC turned out to be 293 µM (≈ 100 µg/mL). As for `O=C1N=C(c2ccc([N+](=O)[O-])cc2)CC(c2ccc(Cl)cc2Cl)N1` (stereo not drawn), the “-logMIC” value was 4.462 and the MIC is 34.3 µM (≈ 12.5 µg/mL). For `COc1ccc(C2CC(c3ccc([N+](=O)[O-])cc3)=NN2)cc1OC` (stereo not drawn), the “-logMIC” value worked out at 3.813 and the minimal inhibitory concentration (MIC) came out at 154 µM (≈ 50.4 µg/mL).

For the molecule `COc1ccc(C2CC(c3ccc([N+](=O)[O-])cc3)=NO2)cc1OC` (stereo not drawn), the “-logMIC” value is given as 4.116 and the MIC amounted to 76.7 µM (≈ 25.2 µg/mL). With `COc1ccc(/C=C/C(=O)c2ccc([N+](=O)[O-])cc2)cc1`, the minimal inhibitory concentration (MIC) was greater than 88.3 µM.

As to `O=[N+]([O-])c1ccc(C2=NNC(c3ccc(Cl)cc3Cl)C2)cc1` (stereo not drawn), the “-logMIC” value is reported as 4.427 and the minimum inhibitory concentration (MIC) amounted to 37.4 µM (≈ 12.6 µg/mL).

Consider `COc1ccc(OC)c(C2CC(c3ccc([N+](=O)[O-])cc3)=NC(=O)N2)c1` (stereo not drawn), for which the MIC is greater than 282 µM. For `COc1ccc(OC)c(C2CC(c3ccc([N+](=O)[O-])cc3)=NC(=S)N2)c1` (stereo not drawn), the “-logMIC” value came out at 3.869 and the MIC turned out to be 135 µM (≈ 50.1 µg/mL). On the same counts, the results for `O=[N+]([O-])c1ccc(C2=NOC(c3ccc(Cl)cc3)C2)cc1` (stereo not drawn) are 4.08 and 83.3 µM (≈ 25.2 µg/mL). For `O=C(/C=C/c1ccc(F)cc1)c1ccc([N+](=O)[O-])cc1`, the “-logMIC” value turned out to be 4.938 and the MIC was 11.6 µM (≈ 3.13 µg/mL).

As for `COc1ccc(C2CC(c3ccc([N+](=O)[O-])cc3)=NC(=S)N2)cc1OC` (stereo not drawn), the “-logMIC” value was 3.869 and the minimum inhibitory concentration (MIC) turned out to be 135 µM (≈ 50.1 µg/mL). On the same counts, the results for `O=[N+]([O-])c1ccc(C2=NC(=S)NC(c3ccc(Cl)cc3)C2)cc1` (stereo not drawn) are 4.439 and 36.2 µM (≈ 12.5 µg/mL). On to `COc1ccc(/C=C/C(=O)c2ccc([N+](=O)[O-])cc2)cc1OC`, for which the MIC is greater than 79.9 µM.

On to `O=C1N=C(c2ccc([N+](=O)[O-])cc2)CC(c2cccc(Cl)c2)N1` (stereo not drawn), for which the “-logMIC” value is 4.419 and the MIC was 38 µM (≈ 12.5 µg/mL). On the same counts, the results for `COc1cc(C2CC(c3ccc([N+](=O)[O-])cc3)=NC(=O)N2)cc(OC)c1OC` (stereo not drawn) are 3.585 and 260 µM (≈ 100 µg/mL).

`COc1cc(C2CC(c3ccc([N+](=O)[O-])cc3)=NN2)cc(OC)c1OC` (stereo not drawn): the “-logMIC” value came to 3.852 and the MIC is 141 µM (≈ 50.3 µg/mL). In the same order, the values of `O=C1N=C(c2ccc([N+](=O)[O-])cc2)CC(c2ccc(F)cc2)N1` (stereo not drawn) are 4.697 and 20 µM (≈ 6.26 µg/mL). In the same order, the values of `O=C(/C=C/c1cccc(Cl)c1)c1ccc([N+](=O)[O-])cc1` are 4.362 and 43.5 µM (≈ 12.5 µg/mL). On the same counts, the results for `O=C1N=C(c2ccc([N+](=O)[O-])cc2)CC(c2ccc(Cl)cc2)N1` (stereo not drawn) are 4.419 and 38 µM (≈ 12.5 µg/mL). `COc1ccc(OC)c(C2CC(c3ccc([N+](=O)[O-])cc3)=NN2)c1` (stereo not drawn): the “-logMIC” value stood at 3.813 and the MIC came to 154 µM (≈ 50.4 µg/mL). In the same order, the values of `O=[N+]([O-])c1ccc(C2=NNC(c3ccc(F)cc3)C2)cc1` (stereo not drawn) are 4.355 and 44.2 µM (≈ 12.6 µg/mL).

As for `O=C(/C=C/c1ccc(Br)cc1)c1ccc([N+](=O)[O-])cc1`, the “-logMIC” value amounted to 5.026 and the MIC was determined as 9.43 µM (≈ 3.13 µg/mL). In the same order, the values of `COc1cccc(C2CC(c3ccc([N+](=O)[O-])cc3)=NC(=O)N2)c1` (stereo not drawn) are 3.51 and 308 µM (≈ 100 µg/mL). In the same order, the values of `COc1cccc(C2CC(c3ccc([N+](=O)[O-])cc3)=NN2)c1` (stereo not drawn) are 3.47 and 339 µM (≈ 101 µg/mL). `O=[N+]([O-])c1ccc(C2=NOC(c3ccc(Cl)cc3Cl)C2)cc1` (stereo not drawn): the “-logMIC” value worked out at 4.428 and the MIC came to 37.3 µM (≈ 12.6 µg/mL). Take `COc1ccc(C2CC(c3ccc([N+](=O)[O-])cc3)=NC(=O)N2)cc1` (stereo not drawn): the “-logMIC” value was determined as 3.811 and the MIC came to 154 µM (≈ 50.1 µg/mL).

Take `O=C(/C=C/c1ccc(Cl)cc1Cl)c1ccc([N+](=O)[O-])cc1`: the “-logMIC” value was found to be 5.315 and the MIC is 4.84 µM (≈ 1.56 µg/mL). Take `O=C1N=C(c2ccc([N+](=O)[O-])cc2)CC(c2ccc(Br)cc2)N1` (stereo not drawn): the “-logMIC” value is listed as 4.474 and the MIC turned out to be 33.4 µM (≈ 12.5 µg/mL). For the molecule `COc1ccc(OC)c(/C=C/C(=O)c2ccc([N+](=O)[O-])cc2)c1`, the “-logMIC” value was found to be 4.098 and the minimum inhibitory concentration (MIC) is 79.9 µM (≈ 25 µg/mL). On the same counts, the results for `O=[N+]([O-])c1ccc(C2=NC(=S)NC(c3ccc(Br)cc3)C2)cc1` (stereo not drawn) are 4.492 and 32 µM (≈ 12.5 µg/mL).

Values taken from ChEMBL document CHEMBL3045084, “Synthesis, antitubercular activity, and QSAR analysis of substituted nitroaryl analogs: chalcone, pyrazole, isoxazole, and pyrimidines” (2013).
